US9732050B2, “Modulators of sperm hypermotility and uses thereof” (HYDRA BIOSCIENCES, INC., priority 2005, dated 2017)

Biological target: T1, Mouse CatSper1 currents (Mus musculus, UniProt Q91ZR5)
T1 construct: Spermatozoa from corpus epididymis were used because the CD of such cells was less fragile; from tissue; host or cells: mouse spermatozoa from corpus epididymis
Assay: Inhibition of mouse CatSper1 currents in electrophysiological recordings
Type: cell-based
Experimental: Compound (II) was tested for its effects on sperm hyperactivation using a single-sperm motility assay as described in Kirichok Y, Navarro B, Clapham D E. “Whole-cell patch-clamp measurements of spermatozoa reveal an alkaline-activated Ca2+ channel”. Nature. 2006; 439(7077):737-40. Mouse sperm was prepared as described in Kirichok.
The patch pipette was applied to the sperm cell cytoplasmic droplet (CD). Spermatozoa from corpus epididymis were used because the CD of such cells was less fragile. The most mature spermatozoa, those with the CD located next to the principal piece, were chosen for experiments. Pipette resistance with Cs-Methanesulfonate-based solutions was 6-13 MΩ. Access resistance in the whole-cell configuration was 25-120 MS). The pipette solution (in mM) was as follows: 140 Cs-Methanesulfonate, 5 NaCl, 10 HEPES, 10 EGTA, pH 7.2 (pH adjusted with CsOH).
Seals between the patch pipette and the cytoplasmic droplet were formed in HS bath solution (Kirichok Y, Navarro B, Clapham D E. Whole-cell patch-clamp measurements of spermatozoa reveal an alkaline-activated Ca2+ channel. Nature. 2006 Feb. 9; 439(7077):737-40). After break-in, the bath solution was changed to recording solution: 150 NaGluconate, 10 HEPES, 2Na3HEDTA and 2 EGTA, pH 7.4 (pH adjusted with NaOH). CaCl2 was added to the solution in accordance with the WinMAXC v2.05 program (C. Patton, Stanford University) to yield ˜[…] free [Ca2+].
A 20 micromolar solution of compound (II), i.e. 3,4-bis(2-thienylcarbonyl)-1,2,5-oxadiazole-2-ium-2-olate, was prepared from a 100 mM DMSO stock in the recording solution described above. Osmolarity of the solutions was approximately 303 mmol kg-1.
The membrane potential was held at 0 mV. Every 5 seconds CatSper currents were monitored by application of a voltage ramp from −100 mV to +100 mV over the course of 400 milliseconds. Following break-in, cells were monitored until a steady state level of CatSper current (plotted at +80 mV) was observed. […] Steady state block was monitored for 5-6 sweeps. […] Series resistance was monitored throughout the recordings.

block of CatSper current (20 micromolar, current plotted at +80 mV, mouse spermatozoa from corpus epididymis): steady state block was achieved | sweeps until steady state block (20 micromolar, voltage ramp every 5 seconds): 2-3 sweeps | CatSper current following removal of the compound (washout after 20 micromolar): returned rapidly to unblocked levels
Structure (SMILES): O=C(c1cccs1)c1no[n+]([O-])c1C(=O)c1cccs1 [Compound (II), 3,4-bis(2-thienylcarbonyl)-1,2,5-oxadiazole-2-ium-2-olate]
